Source: ChEMBL document CHEMBL1125968, “5-HT2 antagonist activity of 3-aminomethyltetralones” (Bioorg Med Chem Lett, 1991)

Legend:
Rattus norvegicus = species: Rattus norvegicus; test: Tested for the antagonistic activity against serotonin-induced contractions in rat aorta ring strip of endothelium; format: functional, organism-based; conditions: read-out: pA2 (converted)
[1] = target: Serotonin 2 (5-HT2) receptor (Rattus norvegicus, UniProt P30994+P08909+P14842); test: Tested for the binding affinity towards 5-HT2 receptor measured by [3H]ketanserin binding to frontal cerebral cortex membranes of rat; format: tissue-based, Membrane

Log Ki [1]	Structure (SMILES)	Kb (Rattus norvegicus) [nM]
	O=C1CC(CN2CCC(C(=O)c3ccc(F)cc3)CC2)Cc2ccccc21 (stereo unspecified)	13.8
-6.48	COc1ccccc1N1CCN(CC2CC(=O)c3ccccc3C2)CC1 (stereo unspecified)	513
-7.25	O=C(CCCN1CCN(CC2CC(=O)c3ccccc3C2)CC1)c1ccc(F)cc1 (stereo unspecified)	
-7.29	O=C(CCCN1CCN(CC2CC(=O)c3ccc(F)cc3C2)CC1)c1ccc(F)cc1 (stereo unspecified)	56.2
